Measurements reported in patent US20140357718A1 (priority 2013, published 2014).
Where two headings read alike, the source gives them in different places.

Experiments:
Assay type in all cases: cell-based
Escherichia coli = assay: Bacterial growth in pure culture with test composition (turbidity 660 nm); conditions: E. coli, 9 h, 40° C., anaerobic
Clostridium perfringens = conditions: C. perfringens, 23 h, 40° C., anaerobic
Campylobacter jejuni = assay: Bacterial growth in pure culture with test composition (SYBR Green fluorescence); conditions: C. jejuni, 19 h, 40° C., anaerobic
Lactobacillus crispatus = assay: Bacterial growth in pure culture with test composition (turbidity 660 nm); conditions: L. crispatus, 23 h, 40° C., anaerobic
[1] = free pH, 0.01% (w/v) composition
[2] = free pH, 0.1% (w/v) composition
[3] = free pH, 0.3% (w/v) composition
[4] = pH 6.5 (neutralised with NaOH), 0.01% (w/v) composition
[5] = pH 6.5 (neutralised with NaOH), 0.3% (w/v) composition
[6] = pH 6.5 (neutralised with NaOH), 0.1% (w/v) composition

Question: How did the “Growth of Indicator Bacteria (% of Growth Control)” value (shortened to “Growth … (% of Growth Control)”) (Escherichia coli; [1]) turn out when `O=CO` [Composition C, formic acid] was run?
Answer: 80%

Question: And the “Growth … (% of Growth Control)” value (Escherichia coli; [2])?
Answer: 20%

Question: What about the “Growth … (% of Growth Control)” value (Escherichia coli; [3]) of the same compound?
Answer: 15%

Question: And the “Growth … (% of Growth Control)” value (Escherichia coli; [4])?
Answer: 110%

Question: What about the “Growth … (% of Growth Control)” value (Escherichia coli; [5]) of the same compound?
Answer: 45%

Question: What about the “Growth … (% of Growth Control)” value (Clostridium perfringens; [1]) of the same compound?
Answer: 75%

Question: And the “Growth … (% of Growth Control)” value (Clostridium perfringens; [2])?
Answer: 20%

Question: What about the “Growth … (% of Growth Control)” value (Clostridium perfringens; [3]) of the same compound?
Answer: 15%

Question: And the “Growth … (% of Growth Control)” value (Clostridium perfringens; [4])?
Answer: 100%

Question: And the “Growth … (% of Growth Control)” value (Clostridium perfringens; [6])?
Answer: 65%

Question: And the “Growth … (% of Growth Control)” value (Clostridium perfringens; [5])?
Answer: 60%

Question: What about the “Growth … (% of Growth Control)” value (Campylobacter jejuni; [1]) of the same compound?
Answer: 170%

Question: And the “Growth … (% of Growth Control)” value (Campylobacter jejuni; [2])?
Answer: 20%

Question: What about the “Growth … (% of Growth Control)” value (Campylobacter jejuni; [3]) of the same compound?
Answer: 10%

Question: And the “Growth … (% of Growth Control)” value (Campylobacter jejuni; [4])?
Answer: 170%

Question: What about the “Growth … (% of Growth Control)” value (Campylobacter jejuni; [6]) of the same compound?
Answer: 115%

Question: And the “Growth … (% of Growth Control)” value (Campylobacter jejuni; [5])?
Answer: 65%

Question: And the “Growth … (% of Growth Control)” value (Lactobacillus crispatus; [1])?
Answer: 95%

Question: And the “Growth … (% of Growth Control)” value (Lactobacillus crispatus; [2])?
Answer: 90%

Question: What about the “Growth … (% of Growth Control)” value (Lactobacillus crispatus; [3]) of the same compound?
Answer: 75%

Question: And the “Growth … (% of Growth Control)” value (Lactobacillus crispatus; [4])?
Answer: 120%

Question: What about the “Growth … (% of Growth Control)” value (Lactobacillus crispatus; [6]) of the same compound?
Answer: 115%

Question: What about the “Growth … (% of Growth Control)” value (Lactobacillus crispatus; [5]) of the same compound?
Answer: 95%
